Activity calls are given as the source filed them. The calls are words filed in the database; no cut-off is given here.

Test [1] concerns the target T1, Progesterone receptor (Oryctolagus cuniculus, UniProt P06186).
T1 sequence (P06186 whole entry): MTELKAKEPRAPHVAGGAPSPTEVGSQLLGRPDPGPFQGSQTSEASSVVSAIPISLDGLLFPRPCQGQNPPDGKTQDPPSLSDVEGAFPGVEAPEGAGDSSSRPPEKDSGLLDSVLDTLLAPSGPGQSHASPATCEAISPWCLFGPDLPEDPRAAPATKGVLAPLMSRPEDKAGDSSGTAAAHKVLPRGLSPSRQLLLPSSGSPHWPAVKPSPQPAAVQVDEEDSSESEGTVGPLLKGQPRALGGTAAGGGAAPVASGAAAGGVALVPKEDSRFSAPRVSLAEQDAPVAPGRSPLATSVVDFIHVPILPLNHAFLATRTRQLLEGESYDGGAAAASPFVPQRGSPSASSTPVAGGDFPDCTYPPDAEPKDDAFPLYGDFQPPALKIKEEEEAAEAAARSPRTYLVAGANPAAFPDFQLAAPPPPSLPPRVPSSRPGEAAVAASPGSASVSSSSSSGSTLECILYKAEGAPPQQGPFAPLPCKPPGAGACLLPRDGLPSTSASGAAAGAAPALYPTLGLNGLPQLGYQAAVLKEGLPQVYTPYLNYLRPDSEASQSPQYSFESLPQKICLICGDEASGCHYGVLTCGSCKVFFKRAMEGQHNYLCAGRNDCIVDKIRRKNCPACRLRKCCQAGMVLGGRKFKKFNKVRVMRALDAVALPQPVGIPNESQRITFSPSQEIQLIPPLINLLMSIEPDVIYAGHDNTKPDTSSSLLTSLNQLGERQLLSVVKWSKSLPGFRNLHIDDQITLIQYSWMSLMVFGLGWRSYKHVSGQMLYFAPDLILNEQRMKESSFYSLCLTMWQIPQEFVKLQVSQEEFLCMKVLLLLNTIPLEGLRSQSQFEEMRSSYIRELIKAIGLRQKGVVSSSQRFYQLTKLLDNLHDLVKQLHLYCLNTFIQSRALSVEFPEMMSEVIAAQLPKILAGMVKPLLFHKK
As to the kind of experiment: Binding affinity determined by ability to displace [3H]R5020 radioligand using uterine progesterone receptor obtained from estrogen-primed rabbit.

Test [2] concerns T47D. Nature of the test: Agonistic activity in T47D human breast carcinoma cell proliferation assay. The format is functional.
For test [3], the system named is T47D. As to the kind of experiment: Agonistic activity in T47D human breast carcinoma cell proliferation assay; Not active. The test is classed as functional, cell-based.
Test [4] deals with T47D. As to the kind of experiment: Agonistic activity in T47D human breast carcinoma cell proliferation assay; Not active up to 10 uM. The format is functional, cell-based.
In test [5] the target is T1, Progesterone receptor. As to the kind of experiment: Displacement of [3H]R5020 from uterine progesterone receptor of estrogen-primed rabbits; Not active up to 10 uM.
Test [6] has as its target T1, Progesterone receptor. As to the kind of experiment: Displacement of [3H]R5020 from uterine progesterone receptor of estrogen-primed rabbits; Not active.

On Progesterone receptor [1], `O=Cc1nn(-c2ccc(F)cc2)c2c1CCCC2Cc1ccccc1` (centres undefined) showed an IC50 of 3 nM. Also, in the test with T47D [2], the SC200 is 22 nM. `O=C(NCc1ccccc1)c1nn(-c2ccc(F)cc2)c2c1CCCC2Cc1cccc2ccccc12` (centres undefined) registered an IC50 at Progesterone receptor [1] greater than 10000 nM. `CN/N=C/c1nn(-c2ccc(F)cc2)c2c1CCCC2Cc1cccc2ccccc12` (centres undefined) returned an IC50 on Progesterone receptor [1] of 49 nM. Further, the SC200 entry in the test on T47D [3] is “inactive”. The matching figures for `O=Cc1nn(-c2ccc(Cl)cc2)c2c1CCCC2Cc1cccc2ccccc12` (centres undefined): 9 nM and “inactive”. As to `O=Cc1nn(-c2ccc(F)cc2)c2c1CCCC2Cc1cccc2ccccc12` (centres undefined), the IC50 on Progesterone receptor [1] came to 3.2 nM. In the test with T47D [2], this molecule showed an SC200 of 105 nM. Consider `OCc1nn(-c2ccc(F)cc2)c2c1CCCC2Cc1cccc2ccccc12` (centres undefined), for which the IC50 on Progesterone receptor [1] is 52 nM. Besides, the SC200 result in the test on T47D [4] is “inactive”.

With `CCN(CC)C(=O)c1nn(-c2ccc(F)cc2)c2c1CCCC2Cc1cccc2ccccc12` (centres undefined), on Progesterone receptor [1], the IC50 turned out to be 3000 nM. On to `COc1cccc(CC2CCCc3c(C=O)nn(-c4ccc(F)cc4)c32)c1` (centres undefined), for which the IC50 at Progesterone receptor [1] came out at 16.8 nM. The molecule also registered an SC200 in the test with T47D [2] of 417 nM. The molecule `O=Cc1nn(-c2ccc(F)cc2)c2c1CCCC2Cc1ccc(Cl)cc1` (centres undefined) came in with an IC50 at Progesterone receptor [1] of 11.9 nM. Further, the SC200 entry in the test with T47D [3] is “inactive”. `COc1ccc(CC2CCCc3c(C=O)nn(-c4ccc(F)cc4)c32)cc1OC` (centres undefined) gave an IC50 at Progesterone receptor [1] of 1890 nM. Consider `Fc1ccc(-n2nc(/C=N/c3ccccc3)c3c2C(Cc2cccc4ccccc24)CCC3)cc1` (centres undefined), for which, at Progesterone receptor [1], the half-maximal inhibitory concentration (IC50) came out at 2.3 nM. Besides, the SC200 in the test on T47D [2] is recorded as 185 nM. In the case of `Fc1ccc(-n2nc(CNCc3ccccc3)c3c2C(Cc2cccc4ccccc24)CCC3)cc1` (centres undefined), at Progesterone receptor [1], the IC50 was 1380 nM. In other words, the single-digit micromolar range. In the case of `CCC(=O)c1nn(-c2ccc(F)cc2)c2c1CCCC2Cc1cccc2ccccc12` (centres undefined), the half-maximal inhibitory concentration (IC50) on Progesterone receptor [1] was found to be 1000 nM. The IC50 values of the last two molecules are within 1.5-fold of each other. On the same count and under the same terms, the figure for `CC(=O)c1nn(-c2ccc(F)cc2)c2c1CCCC2Cc1cccc2ccccc12` (centres undefined) is 1760 nM; for `CC(=O)N/N=C/c1nn(-c2ccc(F)cc2)c2c1CCCC2Cc1cccc2ccccc12` (centres undefined) it is greater than 10000 nM. Consider `COC(=O)c1ccc(-n2nc(C=O)c3c2C(Cc2cccc4ccccc24)CCC3)cc1` (centres undefined), for which the IC50 result on Progesterone receptor [5] is listed as “Not Active”.

In turn, `O=Cc1nn(-c2ccccc2)c2c1CCCC2Cc1cccc2ccccc12` (centres undefined) displayed a half-inhibitory concentration (IC50) on Progesterone receptor [1] of 6 nM. In addition, the SC200 with T47D [2] amounted to 56 nM.

Consider `O=C(N/N=C/c1nn(-c2ccc(F)cc2)c2c1CCCC2Cc1cccc2ccccc12)c1ccccc1` (centres undefined), for which, on Progesterone receptor [1], the IC50 is greater than 10000 nM. Further, in the test on T47D [2], the SC200 is listed as 2265 nM.

For the molecule `CC(C)(C)c1ccc(CC2CCCc3c(C=O)nn(-c4ccc(F)cc4)c32)cc1` (centres undefined), the IC50 at Progesterone receptor [1] turned out to be 1000 nM. In turn, `O=Cc1nn(-c2ccc(F)cc2)c2c1CCCC2Cc1ccccc1Cl` (centres undefined) had an IC50 on Progesterone receptor [1] of 10.5 nM. For the same molecule, in the test on T47D [2], the SC200 was 100 nM. The molecule `N#Cc1nn(-c2ccc(F)cc2)c2c1CCCC2Cc1cccc2ccccc12` (centres undefined) came in with an IC50 at Progesterone receptor [1] of 41 nM. Also, the SC200 result in the test with T47D [3] is “inactive”.

For the molecule `O=Cc1nn(-c2ccc(F)cc2)c2c1CCCC2Cc1ccc(F)c(F)c1` (centres undefined), the IC50 at Progesterone receptor [1] is 2 nM. For the same molecule, the SC200 with T47D [2] worked out at 81 nM. The molecule `COc1ccc(-n2nc(C=O)c3c2C(Cc2cccc4ccccc24)CCC3)cc1` (centres undefined) yielded an IC50 on Progesterone receptor [1] of 12.7 nM. Also, the SC200 entry in the test with T47D [3] is “inactive”. On Progesterone receptor [1], `O=Cc1nn(-c2ccc(F)cc2)c2c1CCCC2Cc1ccc(-c2ccccc2)cc1` (centres undefined) had an IC50 of 10000 nM. On the same count and under the same terms, the figure for `CC(O)c1nn(-c2ccc(F)cc2)c2c1CCCC2Cc1cccc2ccccc12` (centres undefined) is 236 nM; for `O/N=C/c1nn(-c2ccc(F)cc2)c2c1CCCC2Cc1cccc2ccccc12` (centres undefined) it is 628 nM. Still for that read-out and setting: the figure for `Fc1ccc(-n2nc(C3OCCO3)c3c2C(Cc2cccc4ccccc24)CCC3)cc1` (centres undefined) is 97 nM. For the molecule `CC(=O)OCc1nn(-c2ccc(F)cc2)c2c1CCCC2Cc1cccc2ccccc12` (centres undefined), the half-maximal inhibitory concentration (IC50) on Progesterone receptor [1] was found to be 73 nM. Moreover, the SC200 entry with T47D [3] was “inactive”. The like results for `C=Cc1nn(-c2ccc(F)cc2)c2c1CCCC2Cc1cccc2ccccc12` (centres undefined) were, in that order, 147 nM and “inactive”. Consider `CN(C)/N=C/c1nn(-c2ccc(F)cc2)c2c1CCCC2Cc1cccc2ccccc12` (centres undefined), for which, at Progesterone receptor [1], the half-maximal inhibitory concentration (IC50) worked out at 547 nM. Moreover, in the test on T47D [3], the SC200 entry was “inactive”. `COC(=O)Nc1nn(-c2ccc(F)cc2)c2c1CCCC2Cc1cccc2ccccc12` (centres undefined) displayed a 50% inhibitory concentration (IC50) at Progesterone receptor [1] of 1570 nM. This counts as single-digit micromolar.

For the molecule `O=Cc1nn(-c2cccc(Cl)c2)c2c1CCCC2Cc1cccc2ccccc12` (centres undefined), the IC50 at Progesterone receptor [1] came out at 69 nM. At Progesterone receptor [1], `Cc1ccc(CC2CCCc3c(C=O)nn(-c4ccc(F)cc4)c32)cc1` (centres undefined) came in with an IC50 of 7.7 nM. The molecule also yielded an SC200 in the test on T47D [2] of 275 nM. The like results for `O=Cc1nn(-c2ccc(F)cc2)c2c1CCCC2Cc1ccc(F)cc1` (centres undefined) were, in that order, 6.5 nM and 27 nM. As for `O=C(OCc1nn(-c2ccc(F)cc2)c2c1CCCC2Cc1cccc2ccccc12)c1ccccc1` (centres undefined), the half-inhibitory concentration (IC50) on Progesterone receptor [1] was 182 nM. Besides, in the test with T47D [3], the SC200 result is “inactive”. The matching figures for `CCCCCCCCOC(=O)c1ccc(-n2nc(C=O)c3c2C(Cc2cccc4ccccc24)CCC3)cc1` (centres undefined): greater than 10000 nM and “inactive”. On Progesterone receptor [1], `CCN(CC)Cc1nn(-c2ccc(F)cc2)c2c1CCCC2Cc1cccc2ccccc12` (centres undefined) returned an IC50 of 1380 nM. Regarding `CCOC(=O)OCc1nn(-c2ccc(F)cc2)c2c1CCCC2Cc1cccc2ccccc12` (centres undefined), the half-maximal inhibitory concentration (IC50) at Progesterone receptor [1] was determined as 90 nM. For the same molecule, the SC200 result in the test on T47D [3] was “inactive”. The molecule `CC(=O)OC(OC(C)=O)c1nn(-c2ccc(F)cc2)c2c1CCCC2Cc1cccc2ccccc12` (centres undefined) had an IC50 on Progesterone receptor [1] of 5.3 nM. Moreover, the SC200 in the test on T47D [2] worked out at 72 nM. `CCCCCCCC(=O)OCc1nn(-c2ccc(F)cc2)c2c1CCCC2Cc1cccc2ccccc12` (centres undefined) returned an IC50 on Progesterone receptor [1] of 4010 nM. Further, the SC200 entry with T47D [3] was “inactive”. Turning to `COc1ccc(CC2CCCc3c(C=O)nn(-c4ccc(F)cc4)c32)cc1` (centres undefined), at Progesterone receptor [1], the IC50 is 163 nM. That is a sub-micromolar value.

On to `O=S(=O)(N/N=C/c1nn(-c2ccc(F)cc2)c2c1CCCC2Cc1cccc2ccccc12)c1ccccc1` (centres undefined), for which, at Progesterone receptor [1], the IC50 was greater than 10000 nM. In addition, the SC200 result with T47D [3] is “inactive”. As to `CCC(O)c1nn(-c2ccc(F)cc2)c2c1CCCC2Cc1cccc2ccccc12` (centres undefined), the IC50 at Progesterone receptor [1] came out at 690 nM. Same read-out and setting: in the case of `CC(C)c1ccc(CC2CCCc3c(C=O)nn(-c4ccc(F)cc4)c32)cc1` (centres undefined) it was 2190 nM.

`O=Cc1nn(-c2ccc(F)cc2)c2c1CCCC2Cc1ccc2ccccc2c1` (centres undefined) returned an IC50 on Progesterone receptor [1] of 56.4 nM. In addition, in the test on T47D [3], the SC200 result is “inactive”. Consider `O=Cc1nn(-c2ccc(O)cc2)c2c1CCCC2Cc1cccc2ccccc12` (centres undefined), for which the IC50 result at Progesterone receptor [6] is recorded as “Not Active”. `CCCCOC(=O)c1ccc(-n2nc(C=O)c3c2C(Cc2cccc4ccccc24)CCC3)cc1` (centres undefined) returned an IC50 on Progesterone receptor [1] of 851 nM. For the same molecule, in the test on T47D [3], the SC200 entry was “inactive”.

Source of the values: ChEMBL document CHEMBL1130551, “Synthesis and progesterone receptor binding affinity of substituted 1-phenyl-7-benzyl-4,5,6,7-tetrahydro-1-indazoles” (Bioorg Med Chem Lett, 1997).
